# In ChEMBL document CHEMBL1146680, “A highly toxic morphine-3-glucuronide derivative” (Bioorg Med Chem Lett, 2004):
# The source made the active and inactive calls. No cut-off for these calls is given here.
# Legend:
# [1] = test system: Rattus norvegicus; experiment: Reversion of toxic effect (1 ng/kg) by naloxone given 10 mins (after the compound) at a dose of 1 mg/kg; no improvement in survival observed; assay type: organism-based; set-up: dose 1 mg/kg; conditions: in vivo
# [2] = test system: Rattus norvegicus; experiment: Effect on rats after 30 mins of 0.5 mg/kg administration; death observed; assay type: ADME, organism-based; set-up: dose 0.5 mg/kg; conditions: in vivo, 0.5 h
# [3] = test system: Rattus norvegicus; experiment: Effect on rats after 30 mins of 2.5 mg/kg administration; death observed; assay type: ADME, organism-based; set-up: dose 2.5 mg/kg; conditions: in vivo, 0.5 h
# [4] = test system: Rattus norvegicus; experiment: Reversion of toxic effect (1 ng/kg) by naloxone given 10 mins (after the compound) at a dose of 10 mg/kg; no improvement in survival observed; assay type: ADME, organism-based; set-up: dose 10 mg/kg; conditions: in vivo
# [5] = test system: Rattus norvegicus; experiment: Reversion of toxic effect (1 ng/kg) by naloxone given 15 mins (before the compound) at a dose of 10 mg/kg; no improvement in survival observed; assay type: organism-based; set-up: dose 10 mg/kg; conditions: in vivo, 0.25 h
# [6] = test system: Rattus norvegicus; experiment: Effect on rats after 30 mins of 5 mg/kg administration; death observed; assay type: ADME, organism-based; set-up: dose 5 mg/kg; conditions: in vivo, 0.5 h
# [7] = test system: Rattus norvegicus; experiment: Reversion of toxic effect (1 ng/kg) by naloxone given 15 mins (before the compound) at a dose of 5 mg/kg; no improvement in survival observed; assay type: ADME, organism-based; set-up: dose 5 mg/kg; conditions: in vivo, 0.25 h
# [8] = test system: Rattus norvegicus; experiment: Reversion of toxic effect (1 ng/kg) by naloxone given 20 mins (before the compound) at a dose of 10 mg/kg; no improvement in survival observed; assay type: ADME, organism-based; set-up: dose 10 mg/kg; conditions: in vivo
# [9] = test system: Rattus norvegicus; experiment: Effect on rats after 30 mins of 0.005 mg/kg administration; death observed; assay type: ADME, organism-based; set-up: dose 0.005 mg/kg; conditions: in vivo, 0.5 h
# [10] = test system: Rattus norvegicus; experiment: Reversion of toxic effect (1 ng/kg) by naloxone given 15 mins (after the compound) at a dose of 5 mg/kg; no improvement in survival observed; assay type: ADME, organism-based; set-up: dose 5 mg/kg; conditions: in vivo, 0.25 h
# [11] = test system: Rattus norvegicus; experiment: Reversion of toxic effect (1 ng/kg) by naloxone given 10 mins (after the compound) at a dose of 5 mg/kg; no improvement in survival observed; assay type: ADME, organism-based; set-up: dose 5 mg/kg; conditions: in vivo
# [12] = test system: Rattus norvegicus; experiment: Reversion of toxic effect (1 ng/kg) by naloxone given 20 mins (before the compound) at a dose of 5 mg/kg; no improvement in survival observed; assay type: ADME, organism-based; set-up: dose 5 mg/kg; conditions: in vivo
# [13] = test system: Rattus norvegicus; experiment: Reversion of toxic effect (1 ng/kg) by naloxone given 10 mins (before the compound) at a dose of 1 mg/kg; no improvement in survival observed; assay type: organism-based; set-up: dose 1 mg/kg; conditions: in vivo
# [14] = test system: Rattus norvegicus; experiment: Reversion of toxic effect (1 ng/kg) by naloxone given 30 mins (after the compound) at a dose of 5 mg/kg; no improvement in survival observed; assay type: ADME, organism-based; set-up: dose 5 mg/kg; conditions: in vivo, 0.5 h
# [15] = test system: Rattus norvegicus; experiment: Effect on rats after 30 mins of 0.05 mg/kg administration; death observed; assay type: ADME, organism-based; set-up: dose 0.05 mg/kg; conditions: in vivo, 0.5 h
# [16] = test system: Rattus norvegicus; experiment: Reversion of toxic effect (1 ng/kg) by naloxone given 15 mins (before the compound) at a dose of 1 mg/kg; no improvement in survival observed; assay type: organism-based; set-up: dose 1 mg/kg; conditions: in vivo, 0.25 h
# [17] = test system: Rattus norvegicus; experiment: Reversion of toxic effect (1 ng/kg) by naloxone given 10 mins (before the compound) at a dose of 10 mg/kg; no improvement in survival observed; assay type: ADME, organism-based; set-up: dose 10 mg/kg; conditions: in vivo
# [18] = test system: Rattus norvegicus; experiment: Reversion of toxic effect (1 ng/kg) by naloxone given 20 mins (after the compound) at a dose of 1 mg/kg; no improvement in survival observed; assay type: ADME, organism-based; set-up: dose 1 mg/kg; conditions: in vivo
# [19] = test system: Rattus norvegicus; experiment: Reversion of toxic effect (1 ng/kg) by naloxone given 15 mins (after the compound) at a dose of 1 mg/kg; no improvement in survival observed; assay type: organism-based; set-up: dose 1 mg/kg; conditions: in vivo, 0.25 h
# [20] = test system: Rattus norvegicus; experiment: Reversion of toxic effect (1 ng/kg) by naloxone given 20 mins (after the compound) at a dose of 5 mg/kg; no improvement in survival observed; assay type: organism-based; set-up: dose 5 mg/kg; conditions: in vivo
# [21] = test system: Rattus norvegicus; experiment: Reversion of toxic effect (1 ng/kg) by naloxone given 15 mins (after the compound) at a dose of 10 mg/kg; no improvement in survival observed; assay type: ADME, organism-based; set-up: dose 10 mg/kg; conditions: in vivo, 0.25 h
# [22] = test system: Rattus norvegicus; experiment: Reversion of toxic effect (1 ng/kg) by naloxone given 20 mins (after the compound) at a dose of 10 mg/kg; no improvement in survival observed; assay type: ADME, organism-based; set-up: dose 10 mg/kg; conditions: in vivo
# [23] = test system: Rattus norvegicus; experiment: Reversion of toxic effect (1 ng/kg) by naloxone given 30 mins (after the compound) at a dose of 10 mg/kg; no improvement in survival observed; assay type: organism-based; set-up: dose 10 mg/kg; conditions: in vivo, 0.5 h
# [24] = test system: Rattus norvegicus; experiment: Effect on rats after 30 mins of 1 ng/kg administration; death observed; assay type: ADME, organism-based; conditions: in vivo, 1e-06 mg/kg, 0.5 h
# [25] = test system: Mus musculus; experiment: Effect after 1 ng/kg i.p. administration was measured by mice tail flick test; no analgesia observed; assay type: functional, organism-based
# [26] = test system: Rattus norvegicus; experiment: Effect on rats after 30 mins of 1 mg/kg administration; death observed; assay type: ADME, organism-based; set-up: dose 1 mg/kg; conditions: in vivo, 0.5 h
# [27] = test system: Rattus norvegicus; experiment: Reversion of toxic effect (1 ng/kg) by naloxone given 20 mins (before the compound) at a dose of 1 mg/kg; no improvement in survival observed; assay type: organism-based; set-up: dose 1 mg/kg; conditions: in vivo
# [28] = test system: Rattus norvegicus; experiment: Reversion of toxic effect (1 ng/kg) by naloxone given 10 mins (before the compound) at a dose of 5 mg/kg; no improvement in survival observed; assay type: ADME, organism-based; set-up: dose 5 mg/kg; conditions: in vivo
# [29] = test system: Rattus norvegicus; experiment: Reversion of toxic effect (1 ng/kg) by naloxone given 30 mins (after the compound) at a dose of 1 mg/kg; no improvement in survival observed; assay type: ADME, organism-based; set-up: dose 1 mg/kg; conditions: in vivo, 0.5 h
# [30] = test system: Mus musculus; experiment: Effect after 1 ng/kg i.p. administration was measured by mice paw pressure test; no analgesia observed; assay type: functional, organism-based
# [31] = test system: Rattus norvegicus; experiment: Effect after 5 mg/kg i.p. administration was measured by rat tail flick test; no analgesia observed; assay type: functional, organism-based; set-up: dose 5 mg/kg
# [32] = test system: Rattus norvegicus; experiment: Inhibition of analgesia by (5 mg/kg) administered 10 min after morphine (5 mg/kg); inhibited; assay type: functional, organism-based
# [33] = test system: Rattus norvegicus; experiment: Effect after 10 mg/kg i.p. administration was measured by rat tail flick test; no analgesia observed; assay type: functional, organism-based; set-up: dose 10 mg/kg
# [34] = test system: Rattus norvegicus; experiment: Effect after 1 mg/kg i.p. administration was measured by rat paw pressure test; no analgesia observed; assay type: functional, organism-based; set-up: dose 1 mg/kg
# [35] = test system: Rattus norvegicus; experiment: Effect after 1 mg/kg i.p. administration was measured by rat tail flick test; no analgesia observed; assay type: functional, organism-based; set-up: dose 1 mg/kg
# [36] = test system: Rattus norvegicus; experiment: Effect after 10 mg/kg i.p. administration was measured by rat paw pressure test; no analgesia observed; assay type: functional, organism-based; set-up: dose 10 mg/kg
# [37] = test system: Rattus norvegicus; experiment: Effect after 5 mg/kg i.p. administration was measured by rat paw pressure test; no analgesia observed; assay type: functional, organism-based; set-up: dose 5 mg/kg
# [38] = test system: Rattus norvegicus; experiment: Analgesic effect on rats after 30 mins of 5 mg/kg administration; value ranges from 60-70%; assay type: functional
# [39] = test system: Rattus norvegicus; experiment: Opioid antagonist activity (30 mg/kg, peripherally) was determined by measuring the analgesia produced by morphine given 10 mins (after the compound) at a dose of 5 mg/kg; no effect; assay type: functional, organism-based; set-up: dose 5 mg/kg
# [40] = test system: Rattus norvegicus; experiment: Opioid antagonist activity (1 mg/kg, peripherally) was determined by measuring the analgesia produced by morphine given 10 mins (after the compound) at a dose of 5 mg/kg; no effect; assay type: functional, organism-based; set-up: dose 5 mg/kg
# [41] = test system: Rattus norvegicus; experiment: Opioid antagonist activity (5 mg/kg, peripherally) was determined by measuring the analgesia produced by morphine given 10 mins (after the compound) at a dose of 5 mg/kg; no effect; assay type: functional, organism-based; set-up: dose 5 mg/kg
# [42] = test system: Rattus norvegicus; experiment: Opioid agonist activity by measuring the analgesia produced after 10 mg/kg administration in rats; none; assay type: functional, organism-based; set-up: dose 10 mg/kg
# [43] = test system: Rattus norvegicus; experiment: Opioid agonist activity by measuring the analgesia produced after 5 mg/kg administration in rats; none; assay type: functional, organism-based; set-up: dose 5 mg/kg
# [44] = test system: Rattus norvegicus; experiment: Opioid agonist activity by measuring the analgesia produced after 1 mg/kg administration in rats; none; assay type: functional, organism-based; set-up: dose 1 mg/kg
# [45] = test system: Rattus norvegicus; experiment: Opioid antagonist activity (1 mg/kg, peripherally) was determined by measuring the analgesia produced by morphine given 20 mins (after the compound) at a dose of 5 mg/kg; no effect; assay type: functional, organism-based; set-up: dose 5 mg/kg
smiles,measurement,setting,value
CCCCCCCCNC(=O)C1OC(Oc2ccc3c4c2O[C@H]2[C@@H](O)C=C[C@H]5[C@@H](C3)N(C)CC[C@@]452)C(O)C(O)C1O (stereo not given in full),Activity,[1],no improvement in survival
same,Effect,[2],Death
same,Effect,[3],Death
same,Activity,[4],no improvement in survival
same,Activity,[5],no improvement in survival
same,Effect,[6],Death
same,Activity,[7],no improvement in survival
same,Activity,[8],no improvement in survival
same,Effect,[9],Death
same,Activity,[10],no improvement in survival
same,Activity,[11],no improvement in survival
same,Activity,[12],no improvement in survival
same,Activity,[13],no improvement in survival
same,Activity,[14],no improvement in survival
same,Effect,[15],Death
same,Activity,[16],no improvement in survival
same,Activity,[17],no improvement in survival
same,Activity,[18],no improvement in survival
same,Activity,[19],no improvement in survival
same,Activity,[20],no improvement in survival
same,Activity,[21],no improvement in survival
same,Activity,[22],no improvement in survival
same,Activity,[23],no improvement in survival
same,Effect,[24],Death
same,Effect,[25],Death
same,Effect,[26],Death
same,Activity,[27],no improvement in survival
same,Activity,[28],no improvement in survival
same,Activity,[29],no improvement in survival
same,Effect,[30],Death
CN1CC[C@]23c4c5ccc(OC6OC(C(N)=O)C(O)C(O)C6O)c4O[C@H]2[C@@H](O)C=C[C@H]3[C@H]1C5 (stereo not given in full),Effect,[31],no analgesia observed
same,Activity,[32],inhibited
same,Effect,[33],no analgesia observed
same,Effect,[34],no analgesia observed
same,Effect,[35],no analgesia observed
same,Effect,[36],no analgesia observed
same,Effect,[37],no analgesia observed
CN1CC[C@]23c4c5ccc(O)c4O[C@H]2[C@@H](O)C=C[C@H]3[C@H]1C5 [MORPHINE],Effect,[38],70%
C=CCN1CC[C@]23c4c5ccc(O)c4O[C@H]2C(=O)CC[C@@]3(O)[C@H]1C5,Activity,[39],inactive
same,Activity,[40],inactive
same,Activity,[41],inactive
CN1CC[C@]23c4c5ccc(O[C@@H]6O[C@H](C(=O)O)[C@@H](O)[C@H](O)[C@H]6O)c4O[C@H]2[C@@H](O)C=C[C@H]3[C@H]1C5 (stereo in doubt; form 2),Activity,[42],inactive
same,Activity,[43],inactive
same,Activity,[44],inactive
CN1CC[C@]23c4c5ccc(O[C@@H]6O[C@H](C(=O)O)[C@@H](O)[C@H](O)[C@H]6O)c4O[C@H]2[C@@H](O)C=C[C@H]3[C@H]1C5 (stereo in doubt; form 1),Activity,[39],inactive
same,Activity,[42],inactive
same,Activity,[45],inactive
same,Activity,[43],inactive
same,Activity,[41],inactive
same,Activity,[44],inactive
